Assay results reported in US20250197387A1, “BCL-XL DEGRADERS AND USES THEREOF” (Kymera Therapeutics, Inc., priority 2021, published 2025).
Read-outs that look alike come from different tables or passages of the source.

Legend:
Format in all cases: cell-based
MOLT-4 cells = assay: CTG (CellTiter-Glo) cell viability assay, MOLT-4; details: Homo sapiens, 3 day incubation, read-out: CTG Cell Viability Assay - MOLT-4 3 day: Average external-IC50
Summary of the method: (§1)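 10,000 cells/well; 9 doses, 1:3 from 10 μM top; 0.2% DMSO; 3 d, 37 °C, 5% CO2; CTG luminescence; IC50 via 3-parameter logistic fit. Letter bins differ: Caki-2 C/D cut at 10.0 μM, MOLT-4 at 3.0 μM.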

BCL-XL = target: T1, BCL-XL (Homo sapiens, UniProt Q07817); assay: Bcl-xL ELISA degradation in MOLT-4 cells, 6 h; details: for DC50: read-out: Bcl-xL ELISA in MOLT-4 degradation 6 h: Mean external-Abs DC50
T1 construct: endogenous in cells; host or cells: MOLT-4
T1 sequence (Q07817 whole entry): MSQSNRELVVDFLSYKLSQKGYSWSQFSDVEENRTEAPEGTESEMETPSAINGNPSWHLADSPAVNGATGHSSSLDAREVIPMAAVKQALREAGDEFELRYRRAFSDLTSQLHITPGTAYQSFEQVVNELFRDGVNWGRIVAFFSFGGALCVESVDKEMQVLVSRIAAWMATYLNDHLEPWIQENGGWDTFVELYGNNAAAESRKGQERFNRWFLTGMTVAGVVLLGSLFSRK
Procedure: The letter codes for BCL-XL DC50 include: A (<0.01 μM); B (0.01-0.1 μM); C (>[…]); D (>0.5-1.0 μM); and E (>1.0 μM). The letter codes for Dmax % include A (>75%); B (50 to 75%); C (<50%).

Caki-2 cells = assay: CTG (CellTiter-Glo) cell viability assay, Caki-2; details: Homo sapiens, 72 h, 3 day incubation, read-out: CTG Chempartner - Caki-2 3 day: Average external-IC50
Summary of the method: as §1

Compound | IC50 (MOLT-4 cells; MOLT-4, 72 h) | Dmax (BCL-XL) | DC50 (BCL-XL) | IC50 (Caki-2 cells) | IC50 (MOLT-4 cells; 72 h)
C#Cc1ccc([C@H](C)NC(=O)[C@@H]2C[C@@H](O)CN2C(=O)[C@@H](NC(=O)CCCCS(=O)(=O)NC(=O)c2nc(N(C)c3cc(C)c(Nc4nc5cccnc5s4)nn3)ccc2-c2cnn(CC34CC5CC(CC(C5)C3)C4)c2C)C(C)(C)C)cc1 [I-454] | 1000 to 3000 nM | > 75% | 10 to 100 nM | > 10000 nM | 
Cc1ncsc1-c1ccc([C@H](C)NC(=O)[C@@H]2C[C@@H](O)CN2C(=O)[C@@H](NC(=O)CCCCS(=O)(=O)NC(=O)c2nc(N3CCc4cccc(C(=O)Nc5nc6ccccc6s5)c4C3)ccc2-c2cnn(CC3CCCCC3)c2C)C(C)(C)C)cc1 [I-317] | 100 to 1000 nM | > 75% | 10 to 100 nM | 1000 to 10000 nM | 
Cc1ncsc1-c1ccc([C@H](C)NC(=O)[C@@H]2C[C@@H](O)CN2C(=O)[C@H](NC(=O)CCCCCS(=O)(=O)NC(=O)c2nc(N3CCc4cccc(C(=O)Nc5nc6ccccc6s5)c4C3)ccc2-c2cnn(CC3CCCCC3)c2C)C(C)(C)CCOP(=O)(O)O)cc1 [I-416] | > 3000 nM | > 75% | 100 to 500 nM | > 10000 nM | 
Cc1cc(C(C(=O)N2C[C@H](O)C[C@H]2C(=O)NCc2ccc(-c3scnc3C)cc2OCCN(C)C2CCN(C(=O)c3nc(N4CCc5cccc(C(=O)Nc6nc7ccccc7s6)c5C4)ccc3-c3cnn(CC4CCCCC4)c3C)CC2)C(C)C)on1 (stereo partly shown) [I-322] | 100 to 1000 nM | 50 to 75% | 100 to 500 nM | 100 to 1000 nM | 
Cc1ncsc1-c1ccc([C@H](C)NC(=O)[C@@H]2C[C@@H](OC(=O)CCP(=O)(O)O)CN2C(=O)[C@@H](NC(=O)C2CCN(c3ccc(S(=O)(=O)NC(=O)c4nc(N5CCc6cccc(C(=O)Nc7nc8ccccc8s7)c6C5)ccc4-c4cnn(CC5CCCCC5)c4C)cc3)CC2)C(C)(C)C)cc1 [I-350] |  | > 75% | 10 to 100 nM | 1000 to 10000 nM | 100 to 1000 nM
Cc1ncsc1-c1ccc([C@H](C)NC(=O)[C@@H]2C[C@@H](O)CN2C(=O)[C@@H](NC(=O)CCCCCS(=O)(=O)NC(=O)c2nc(N3CCc4cccc(C(=O)Nc5nc6ccccc6s5)c4C3)ccc2-c2cnn(CC3CCCCC3)c2C)C(C)(C)CCOP(=O)(O)O)cc1 [I-415] | > 3000 nM | 50 to 75% | > 1000 nM | > 10000 nM | 
Cc1cc(N(C)c2ccc(-c3cnn(CC45CC6CC(CC(C6)C4)C5)c3C)c(C(=O)NS(=O)(=O)CCCCCC(=O)N[C@H](C(=O)N3C[C@H](O)C[C@H]3C(=O)N[C@H](C)c3ccc4c(c3)c(C)nn4C)C(C)(C)C)n2)nnc1Nc1nc2ccccc2s1 (single isomer, unassigned) [I-492] | 100 to 1000 nM | > 75% | 10 to 100 nM | > 10000 nM | 
Cc1ncsc1-c1ccc([C@H](C)NC(=O)[C@@H]2C[C@@H](O)CN2C(=O)[C@@H](NC(=O)[C@H]2CC[C@H](c3nc(C4CCCN(C(=O)c5nc(N6CCc7cccc(C(=O)Nc8nc9ccccc9s8)c7C6)ccc5-c5cnn(CC6CCCCC6)c5C)C4)no3)CC2)C(C)(C)C)cc1 (stereo partly shown) [I-301] | 100 to 1000 nM | 50 to 75% | > 1000 nM | 1000 to 10000 nM | 
Cc1ncsc1-c1ccc(CNC(=O)[C@@H]2C[C@@H](O)CN2C(=O)[C@@H](NC(=O)C2CN(CCS(=O)(=O)NC(=O)c3nc(N4CCc5cccc(C(=O)Nc6nc7ccccc7s6)c5C4)ccc3-c3cnn(CC4CCCCC4)c3C)C2)C(C)(C)C)cc1 [I-422] | 100 to 1000 nM | > 75% | 100 to 500 nM | > 10000 nM | 
Cc1ncsc1-c1ccc([C@H](C)NC(=O)[C@@H]2C[C@@H](O)CN2C(=O)[C@@H](NC(=O)CCCCCS(=O)(=O)NC(=O)c2nc(N3CCc4cccc(C(=O)Nc5nc6ccccc6s5)c4C3)ccc2-c2ccnc(N(C)C(C)C)c2C)C(C)(C)C)cc1 [I-333] | 100 to 1000 nM | 50 to 75% | 100 to 500 nM | > 10000 nM | 
Cc1c(-c2ccc(N3CCc4cccc(C(=O)Nc5nc6cccnc6s5)c4C3)nc2C(=O)NS(=O)(=O)CCCCCC(=O)N[C@H](C(=O)N2C[C@H](O)C[C@H]2C(=O)N[C@H](C)c2ccc(C#N)cc2O)C(C)(C)C)cnn1CC1CCCCC1 (single isomer, unassigned) [I-486] | 100 to 1000 nM | > 75% | 10 to 100 nM | > 10000 nM | 
Cc1ncsc1-c1ccc([C@H](C)NC(=O)[C@@H]2C[C@@H](O)CN2C(=O)[C@@H](NC(=O)CN2CCC(CS(=O)(=O)NC(=O)c3nc(N4CCc5cccc(C(=O)Nc6nc7ccccc7s6)c5C4)ccc3-c3cnn(CC4CCCCC4)c3C)CC2)C(C)(C)C)cc1 [I-335] |  | > 75% | < 10 nM | 1000 to 10000 nM | < 100 nM

More lines, main results first:

IC50 (MOLT-4 cells; MOLT-4, 72 h) | Dmax (BCL-XL) | DC50 (BCL-XL) | Compound | IC50 (Caki-2 cells) | IC50 (MOLT-4 cells; 72 h)
< 100 nM | > 75% | 10 to 100 nM | C#Cc1ccc([C@H](CO)NC(=O)[C@@H]2C[C@@H](O)CN2C(=O)[C@@H](NC(=O)CCCCCS(=O)(=O)NC(=O)c2nc(N3CCc4cccc(C(=O)Nc5nc6cccnc6s5)c4C3)ccc2-c2cnn(CC3CCCCC3)c2C)C(C)(C)C)cc1 [I-488] | > 10000 nM | 
< 100 nM | > 75% | 10 to 100 nM | Cc1ncsc1-c1ccc(CNC(=O)[C@@H]2C[C@@H](O)CN2C(=O)[C@@H](NC(=O)C2CCN(c3ccc(S(=O)(=O)NC(=O)c4nc(N5CCc6cccc(C(=O)Nc7nc8ccccc8s7)c6C5)ccc4-c4cnn(CC5CCCCC5)c4C)cc3F)CC2)C(C)(C)C)cc1 [I-329] | 1000 to 10000 nM | 
< 100 nM | > 75% | < 10 nM | Cc1ncsc1-c1ccc(CNC(=O)[C@@H]2C[C@@H](O)CN2C(=O)[C@@H](NC(=O)[C@H]2CCN(c3ccc(S(=O)(=O)NC(=O)c4nc(N5CCc6cccc(C(=O)Nc7nc8ccccc8s7)c6C5)ccc4-c4cnn(CC5CCCCC5)c4C)cc3)C2)C(C)(C)C)cc1 [I-359] | > 10000 nM | 
< 100 nM | > 75% | < 10 nM | C#Cc1ccc(CNC(=O)[C@@H]2C[C@@H](O)CN2C(=O)[C@@H](NC(=O)CCCCCS(=O)(=O)NC(=O)c2nc(N3CCc4cccc(C(=O)Nc5nc6cccnc6s5)c4C3)ccc2-c2cnn(CC3CCCCC3)c2C)C(C)(C)C)cc1 [I-352] | > 10000 nM | 
< 100 nM | > 75% | 10 to 100 nM | Cc1cc(N(C)c2ccc(-c3cnn(CC45CC6CC(CC(C6)C4)C5)c3C)c(C(=O)NS(=O)(=O)CCCCCC(=O)N[C@H](C(=O)N3C[C@H](O)C[C@H]3C(=O)NCc3ccc(-c4scnc4C)cc3)C(C)(C)C)n2)nnc1Nc1nc2ccccc2s1 [I-367] | > 10000 nM | 
< 100 nM | > 75% | 10 to 100 nM | Cc1cnc(NC(=O)c2cccc3c2CN(c2ccc(-c4cnn(CC5CCCCC5)c4C)c(C(=O)NS(=O)(=O)CCCCCC(=O)N[C@H](C(=O)N4C[C@H](O)C[C@H]4C(=O)N[C@@H](C)c4ccc(-c5scnc5C)cc4)C(C)(C)C)n2)CC3)s1 [I-460] | > 10000 nM | 
< 100 nM | > 75% | < 10 nM | Cc1ncsc1-c1ccc(CNC(=O)[C@@H]2C[C@@H](O)CN2C(=O)[C@@H](NC(=O)C2CCN(c3ccc(S(=O)(=O)NC(=O)c4nc(N5CCc6cccc(C(=O)Nc7nc8ccccc8s7)c6C5)ccc4-c4cnn(CC5CCCCC5)c4C)c(F)c3)CC2)C(C)(C)C)cc1 [I-339] | 1000 to 10000 nM | 
< 100 nM | > 75% | 10 to 100 nM | Cc1cc(N(C)c2ccc(-c3cnn(CC45CC6CC(CC(C6)C4)C5)c3C)c(C(=O)NS(=O)(=O)c3ccc(N4CC(C(=O)N[C@H](C(=O)N5C[C@H](O)C[C@H]5C(=O)N[C@@H](C)c5ccc(-c6scnc6C)cc5)C(C)(C)C)C4)cc3)n2)nnc1Nc1nc2ccccc2s1 [I-434] | > 10000 nM | 
< 100 nM | 50 to 75% | 10 to 100 nM | Cc1ncsc1-c1ccc(CNC(=O)[C@@H]2C[C@@H](O)CN2C(=O)[C@@H](NC(=O)C2CN(c3ccc(S(=O)(=O)NC(=O)c4nc(N5CCc6cccc(C(=O)Nc7nc8ccccc8s7)c6C5)ccc4-c4cnn(CC5CCCCC5)c4C)cc3F)C2)C(C)(C)C)cc1 [I-330] | 1000 to 10000 nM | 
< 100 nM | > 75% | < 10 nM | Cc1ncsc1-c1ccc(CNC(=O)[C@@H]2C[C@@H](O)CN2C(=O)[C@@H](NC(=O)CCCc2cccc(S(=O)(=O)NC(=O)c3nc(N4CCc5cccc(C(=O)Nc6nc7ccccc7s6)c5C4)ccc3-c3cnn(CC4CCCCC4)c3C)c2)C(C)(C)C)cc1 [I-337] | > 10000 nM | 
< 100 nM | > 75% | 10 to 100 nM | Cc1ncsc1-c1ccc([C@H](C)NC(=O)[C@@H]2C[C@@H](O)CN2C(=O)[C@@H](NC(=O)C2CCN(c3ccc(S(=O)(=O)NC(=O)c4nc(N5CCCc6c5nnc(Nc5nc7ccccc7s5)c6C)ccc4-c4cnn(CC5CCCCC5)c4C)cc3)CC2)C(C)(C)C)cc1 [I-310] | > 10000 nM | 
< 100 nM | > 75% | 10 to 100 nM | Cc1ncsc1-c1ccc([C@H](C)NC(=O)[C@@H]2C[C@@H](O)CN2C(=O)[C@@H](NC(=O)C2CCN(c3ccc(S(=O)(=O)NC(=O)c4nc(N5CCc6cccc(C(=O)Nc7nc8ccccc8s7)c6C5)ccc4-c4cnn(CC5(OCCO)CCCCC5)c4C)cc3)CC2)C(C)(C)C)cc1 [I-409] | > 10000 nM | 
< 100 nM | > 75% | 10 to 100 nM | Cc1ncsc1-c1ccc([C@H](C)NC(=O)[C@@H]2C[C@@H](O)CN2C(=O)[C@@H](NC(=O)COCCOCCS(=O)(=O)NC(=O)c2nc(N3CCc4cccc(C(=O)Nc5nc6ccccc6s5)c4C3)ccc2-c2cnn(CC3CCCCC3)c2C)C(C)(C)C)cc1 [I-463] | 1000 to 10000 nM | 
